Reference: BindingDB's records for PubMed 9152366 (University of California San Francisco, 1997)
Several values for one entry are separate records, joined by “and”; a condition that tells them apart may be missing. Equal values may be shown once. Bridge positions count the residues as written; N and C are the ends. Square brackets hold non-standard residues; d marks the D form. Peptide text beside a SMILES is read from it. Nle = CCCC[C@H](N)C(=O)O

Columns and labels:
[1] = target: T1, Vasoactive intestinal polypeptide receptor 2 (Homo sapiens, UniProt P41587)
T1 sequence (P41587 whole entry): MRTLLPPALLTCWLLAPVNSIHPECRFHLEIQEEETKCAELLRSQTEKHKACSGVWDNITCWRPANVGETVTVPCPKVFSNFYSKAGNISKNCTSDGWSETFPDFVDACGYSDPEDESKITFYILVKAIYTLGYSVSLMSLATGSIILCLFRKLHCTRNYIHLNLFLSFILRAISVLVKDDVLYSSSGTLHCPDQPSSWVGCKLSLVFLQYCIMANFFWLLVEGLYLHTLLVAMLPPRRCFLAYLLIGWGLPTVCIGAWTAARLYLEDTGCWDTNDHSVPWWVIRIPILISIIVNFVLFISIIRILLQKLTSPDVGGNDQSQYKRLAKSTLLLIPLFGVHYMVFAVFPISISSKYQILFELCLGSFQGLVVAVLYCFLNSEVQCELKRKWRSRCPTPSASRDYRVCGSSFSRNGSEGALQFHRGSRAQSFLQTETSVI

[2] = target: T2, VIP peptides (Homo sapiens, UniProt P01282)
T2 sequence (P01282 whole entry): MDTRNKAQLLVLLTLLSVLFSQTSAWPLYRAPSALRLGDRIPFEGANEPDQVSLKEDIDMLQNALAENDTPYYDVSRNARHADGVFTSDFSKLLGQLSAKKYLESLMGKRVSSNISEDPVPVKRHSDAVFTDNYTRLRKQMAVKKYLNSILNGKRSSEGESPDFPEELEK

Ki [1]: 16 nM and 9.6 nM
Ki [2]: 3.4 nM
SMILES: CCCC[C@H](NC(=O)[C@H](CCC(N)=O)NC(=O)[C@H](CCCCN)NC(=O)[C@H](CCCNC(=N)N)NC(=O)[C@H](CC(C)C)NC(=O)[C@H](CCCCN)NC(=O)[C@@H](NC(=O)[C@H](Cc1ccc(OC)cc1)NC(=O)[C@H](CC(N)=O)NC(=O)[C@H](CCC(=O)O)NC(=O)[C@@H](NC(=O)[C@H](Cc1ccccc1)NC(=O)[C@@H](NC(=O)[C@H](C)NC(=O)[C@H](CC(=O)O)NC(=O)[C@H](CO)NC(=O)[C@H](Cc1c[nH]cn1)NC(C)=O)C(C)C)[C@@H](C)O)[C@@H](C)O)C(=O)N[C@@H](C)C(=O)N[C@@H](C)C(=O)N[C@@H](CCCCN)C(=O)N[C@H]1CCCCNC(=O)C[C@@H](C(=O)N[C@@H](CC(C)C)C(=O)N[C@@H](CCCCN)C(=O)N[C@@H](CCCCN)C(N)=O)NC(=O)[C@H](CC(N)=O)NC(=O)[C@H](CC(C)C)NC(=O)[C@H](Cc2ccc(O)cc2)NC1=O [CAS_150828-75-4] (Ac-HSDAVFTENY(Me)TKLRKQ[Nle]AAKKYLNDLKK-NH2; lactam 21-25)
